Experimental data reported in patent US7205127B2 (priority 2002, dated 2007).

Tests used:
differentiated L6 cells = test: 2-deoxy-glucose transport (glucose uptake) assay in differentiated L6 myotubes; format: cell-based, rat
Method: Rat skeletal muscle L6-K cells were grown in minimal essential medium (α-MEM Glutamax I) containing 10% fetal bovine serum at 37° C., 5% CO2. The cells were passaged twice weekly by treatment with trypsin-EDTA and transfer of ⅓ of the cells to new flasks with fresh culture medium. For differentiation into myotubes, 30,000 cells were seeded in 1 ml in 24-well plates. When the cells were confluent, usually after 3 days, the medium was replaced by differentiation medium consisting of α-MEM, 2% fetal bovine serum and penicillin/streptomycin at a concentration of 100 U/ml and 100 μg/ml, respectively. The medium was replaced every 2–3 days. Between days 4–7, differentiation medium containing 1 mM cytidine was used. The cells were differentiated for 8–10 days before being used in experiments.
On the day before the glucose transport assay, the wells of the culture plate were emptied and 1 ml serum free DMEM containing 5 mM glucose and penicillin/streptomycin was added. In some experiments the cells were treated over night with test compounds in 1 ml and additional treatments were added the next day to give a total volume of 2 ml. In these experiments, insulin (100–1000 nM) was added in 0.2 ml. When all treatments were performed after 20–24 h in serum free medium, a total volume of 1 ml was used. The wells were emptied and 0.5 ml prewarmed PBS without Ca^2+/mg^2+ containing 1 μCi/ml radioactive 2-deoxy-glucose added. After 10 min at 37° C., the wells were emptied and washed three times with cold PBS. The cell monolayer was solubilized in 0.5 ml 0.5 M NaOH for 3 h at room temperature. 400 μl was mixed with 8 ml scintillation fluid (Optiphase, Wallac) and counted in a scintillation counter (Packard TriCarb). Two 10-μl aliquots were used for determination of protein concentration using the method according to Bradford (Anal. Biochem., 1976, 72:248–54) from BioRad.
This effect is seen when cells are stimulated with 0.1–10 μM DPI for 1 h. A bell-shaped dose response curve for DPI with an optimum at 1 μM is recorded. The effect of suboptimal concentrations of DPI during a 1 h treatment could be stimulated further if insulin is added 30 min after DPI. However, insulin has little additional effect when the maximum effect of DPI is reached in the 1 h protocol (FIG. 1). The effective concentrations at which DPI stimulates glucose transport corresponds well to the concentrations inhibiting NAD(P)H oxidase activity in cell free systems [O'Donnell et al., Biochemical Journal, 290:41–9 (1993)]. […] On the basis of the above results it is postulated that DPI enhances a constitutive activity of the insulin receptor and/or the intracellular insulin-signaling pathway.
Assuming that the enhancing effect of DPI on insulin signaling was due to inhibition of ROS production, it was investigated whether an exogenous source of H2O2 could counteract the effect of DPI. To this end, L6 cells were treated with 25 mU/ml of glucose oxidase for 30 min before addition of DPI.

C57BL/6J ob/ob mice = details: 1 mg/kg i.p. once daily for 4 days
Method: Studies were conducted in vivo, in an animal model of obesity characterized by insulin resistance. Eight-month old C57BL/6J ob/ob mice (M&B A/S, Denmark) were matched for sex, weight and fasting blood glucose concentrations. The animals were injected intraperitoneally once daily with DPI (1 mg/kg) or water for 4 days. On day 5, the animals were fasted for 2.5 h and then given an i.p. injection of human insulin 0.5 U/kg (Actrapid, Novo Nordisk, Denmark) and their blood glucose levels were monitored for 4 h by sampling from the tail. The glucose concentration was determined using a Glucometer Accutrend Sensor (Roche).

[1] = system: thioredoxin-gp91phox fusion protein; details: in the presence of NAD(P)H and FAD; cited from earlier work
NAD(P)H oxidase = target: T1, NAD(P)H oxidase (Homo sapiens, UniProt P19878); details: most likely via binding to p67phox; cited from earlier work
T1 sequence (P19878 1-526): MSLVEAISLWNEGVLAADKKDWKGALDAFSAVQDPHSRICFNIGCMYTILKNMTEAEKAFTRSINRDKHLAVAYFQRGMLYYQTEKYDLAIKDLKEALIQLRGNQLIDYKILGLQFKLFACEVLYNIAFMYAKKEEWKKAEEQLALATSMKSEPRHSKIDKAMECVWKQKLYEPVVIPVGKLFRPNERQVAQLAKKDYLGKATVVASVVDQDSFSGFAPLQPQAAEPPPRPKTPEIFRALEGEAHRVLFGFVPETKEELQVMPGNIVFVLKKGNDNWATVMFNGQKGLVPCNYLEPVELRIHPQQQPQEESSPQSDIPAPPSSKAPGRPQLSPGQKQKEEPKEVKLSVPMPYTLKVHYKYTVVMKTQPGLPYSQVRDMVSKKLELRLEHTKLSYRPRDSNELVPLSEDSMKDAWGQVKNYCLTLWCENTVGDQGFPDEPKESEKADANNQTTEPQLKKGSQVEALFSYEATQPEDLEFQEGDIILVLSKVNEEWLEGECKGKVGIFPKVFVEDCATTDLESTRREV

## insulin: bovine insulin purchased from Sigma, used to stimulate glucose transport
Differentiated L6 cells; L6 cells treated with 25 mU/ml glucose oxidase, 200 nM insulin (FIG. 2)
  reduction of insulin stimulated glucose transport by glucose oxidase: 65%

## c1ccc2c(c1)[I+]c1ccccc1-2 [DPI, Diphenylene iodonium]
Differentiated L6 cells; 1 h treatment
  optimum of bell-shaped dose response curve for glucose uptake: 1 µM
Differentiated L6 cells; L6 cells treated with 25 mU/ml glucose oxidase for 30 min before addition of DPI (FIG. 2)
  reduction of stimulatory effect on glucose transport by glucose oxidase: 68%
Differentiated L6 cells; cells stimulated for 1 h
  concentrations at which the increase in glucose uptake is seen: 0.1 to 10 µM
Differentiated L6 cells; differentiated L6 cells incubated with DPI for 1 h (FIG. 1)
  glucose uptake: significant increase
C57BL/6J ob/ob mice; ob/ob mice
  side effects of treatment: Without any overt side effects
C57BL/6J ob/ob mice; 1–4 h after injection of insulin 0.5 U/kg (FIG. 3)
  blood glucose levels versus control group: significantly lower blood glucose levels
[1]
  diaphorase activity of thioredoxin-gp91phox fusion protein: inhibited

## Mastoparan
NAD(P)H oxidase
  NAD(P)H oxidase activation: inhibit NAD(P)H oxidase activation
